Measured values published in PMC4506562 (Chemmedchem, 2014).

Molecular target: T1, hsolAC (human soluble adenylate cyclase) (Homo sapiens, UniProt Q96PN6)
T1 sequence (Q96PN6 1-469): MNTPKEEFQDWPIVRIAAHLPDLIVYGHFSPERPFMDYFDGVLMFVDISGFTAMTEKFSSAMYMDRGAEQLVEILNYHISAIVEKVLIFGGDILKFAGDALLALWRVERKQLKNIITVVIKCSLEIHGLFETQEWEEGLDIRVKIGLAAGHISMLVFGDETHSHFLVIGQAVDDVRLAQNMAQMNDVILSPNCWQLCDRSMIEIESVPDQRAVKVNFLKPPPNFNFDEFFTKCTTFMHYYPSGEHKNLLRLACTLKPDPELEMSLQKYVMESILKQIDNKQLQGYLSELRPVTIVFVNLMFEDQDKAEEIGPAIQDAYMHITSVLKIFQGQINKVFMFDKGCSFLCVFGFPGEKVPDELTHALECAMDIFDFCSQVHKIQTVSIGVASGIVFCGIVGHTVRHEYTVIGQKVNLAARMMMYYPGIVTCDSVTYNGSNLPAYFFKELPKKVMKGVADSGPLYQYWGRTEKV
Test: Bridge-It cAMP fluorescence assay
Format: biochemical

IC50: > 1000 µM
SMILES: Cc1n[nH]cc1-c1ccc(F)cc1 [compound 1, 4-(4-Fluorophenyl)-3-methyl-1H-pyrazole]
